Measured values reported in US9474790B2, “Stable, protracted GLP-1/glucagon receptor co-agonists for medical use” (Novo Nordisk A/S, priority 2013, dated 2016).
Numbered stars: 1 amine (or outer) side, 2 acyl side, 3 side chain; on linkers, the order of the positions; unused ones are H or OH. Bridge positions count the residues as written; N and C are the ends. Square brackets hold non-standard residues; d marks the D form. Side chains are listed from the residue outwards. Peptide text beside a SMILES is read from it. I, II: the chains in the order shown. * marks the point of attachment. C18 diacid = O=C(O)CCCCCCCCCCCCCCCCC(=O)*; γGlu = O=C(O)[C@H](CCC(=O)[*:2])N[*:1]; Ac4c = NC1(C(=O)O)CCC1; AEEA = NCCOCCOCC(=O)O; Aib = CC(C)(N)C(=O)O

molecular target: T1, human GLP-1 receptor (Homo sapiens, UniProt P43220); experiment: GLP-1 receptor binding, 125I-GLP-1 displacement SPA on isolated membranes; details: displacement of 125I-GLP-1 from membranes; read-out: IC50 GLP-1R
T1 construct: expressed in transfected cells; host or cells: BHK cells (parent BHKTS13), clone FCW467-12A/KZ10-1, with CRE luciferase
T1 sequence (P43220 24-463): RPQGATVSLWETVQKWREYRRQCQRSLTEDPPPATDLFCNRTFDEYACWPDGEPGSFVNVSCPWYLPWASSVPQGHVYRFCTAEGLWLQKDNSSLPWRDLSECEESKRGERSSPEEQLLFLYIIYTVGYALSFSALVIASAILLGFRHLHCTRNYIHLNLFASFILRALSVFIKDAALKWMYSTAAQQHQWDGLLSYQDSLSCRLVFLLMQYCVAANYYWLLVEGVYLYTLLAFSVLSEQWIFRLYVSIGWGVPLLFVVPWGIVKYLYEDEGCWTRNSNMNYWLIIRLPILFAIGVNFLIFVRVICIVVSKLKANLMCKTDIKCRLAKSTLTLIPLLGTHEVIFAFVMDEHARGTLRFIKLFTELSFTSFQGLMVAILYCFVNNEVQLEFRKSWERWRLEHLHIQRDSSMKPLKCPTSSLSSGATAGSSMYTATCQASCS
Procedure, shortened: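 Test derivatives, serially diluted, competed with 125I-GLP-1(7-36)NH2 for the human GLP-1 receptor on BHK membranes, read by WGA-bead scintillation proximity after 2 h at 30°C, pH 7.4 HEPES/EGTA/MgCl2 buffer. Final serum albumin was either ≤0.001% or 2.0%; IC50 from non-linear fit.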

`CC(C)C[C@H](NC(=O)[C@H](Cc1ccc(O)cc1)NC(=O)[C@H](CCCCN)NC(=O)[C@H](CO)NC(=O)[C@H](CC(C)C)NC(=O)[C@H](CC(=O)O)NC(=O)[C@H](CO)NC(=O)[C@@H](NC(=O)[C@H](Cc1ccccc1)NC(=O)[C@@H](NC(=O)CNC(=O)[C@H](CCC(N)=O)NC(=O)C1(NC(=O)[C@@H](N)Cc2c[nH]cn2)CCC1)[C@@H](C)O)[C@@H](C)O)C(=O)N[C@@H](CCC(=O)O)C(=O)N[C@@H](CO)C(=O)N[C@@H](CCCCN)C(=O)N[C@@H](CCCNC(=N)N)C(=O)N[C@@H](C)C(=O)N[C@@H](CCCNC(=N)N)C(=O)N[C@@H](CCC(=O)O)C(=O)N[C@@H](Cc1ccccc1)C(=O)N[C@H](C(=O)N[C@@H](CCC(N)=O)C(=O)N[C@@H](Cc1c[nH]c2ccccc12)C(=O)N[C@@H](CC(C)C)C(=O)N[C@@H](CC(C)C)C(=O)N[C@@H](CCCCNC(=O)CNC(=O)[C@H](CO)NC(=O)[C@H](CCC(=O)O)NC(=O)CNC(=O)[C@H](CO)NC(=O)CC[C@H](NC(=O)CC[C@H](NC(=O)CCCCCCCCCCCCCCCCC(=O)O)C(=O)O)C(=O)O)C(=O)N[C@H](C(N)=O)[C@@H](C)O)C(C)C` [Example 36, N^ε28-[2-[[(2S)-2-[[(2S)-4-carboxy-2-[[2-[[(2S)-2-[[(4S)-4-carboxy-4-[[(4S)-4-carboxy-4-(17-carboxyheptadecanoylamino)butanoyl]amino]butanoyl]amino]-3-hydroxypropanoyl]amino]acetyl]amino]butanoyl]amino]-3-hydroxypropanoyl]amino]acetyl]-[Acb2,Leu10,Glu15,Lys17, Arg20,Glu21,Leu27,Lys28]-Glucagon amide] (I: H-H[Ac4c]QGTFTSDLSKYLESKRAREFVQWLLKT-NH2 / II: {C18 diacid-γGlu-γGlu}-SGESG; amide I:28-II:C; N-terminus assumed) was tested. Which IC50 did it give?
The IC50 was 0.2 nM.

With `CC(C)C[C@H](NC(=O)[C@H](Cc1ccc(O)cc1)NC(=O)[C@H](CCCCN)NC(=O)[C@H](CO)NC(=O)[C@H](CC(C)C)NC(=O)[C@H](CC(=O)O)NC(=O)[C@H](CO)NC(=O)[C@@H](NC(=O)[C@H](Cc1ccccc1)NC(=O)[C@@H](NC(=O)CNC(=O)[C@H](CCC(N)=O)NC(=O)C(C)(C)NC(=O)[C@@H](N)Cc1c[nH]cn1)[C@@H](C)O)[C@@H](C)O)C(=O)N[C@@H](CC(=O)O)C(=O)N[C@@H](C)C(=O)N[C@@H](CCCNC(=N)N)C(=O)N[C@@H](CCCNC(=N)N)C(=O)N[C@@H](C)C(=O)N[C@@H](CCCNC(=N)N)C(=O)N[C@@H](CCC(=O)O)C(=O)N[C@@H](Cc1ccccc1)C(=O)N[C@H](C(=O)N[C@@H](CCC(N)=O)C(=O)N[C@@H](Cc1c[nH]c2ccccc12)C(=O)N[C@@H](CC(C)C)C(=O)N[C@@H](CC(C)C)C(=O)N[C@@H](CC(N)=O)C(=O)N[C@@H](CCCCNC(=O)CC[C@H](NC(=O)CC[C@H](NC(=O)COCCOCCNC(=O)CC[C@H](NC(=O)CCCCCCCCCCCCCCCCC(=O)O)C(=O)O)C(=O)O)C(=O)O)C(N)=O)C(C)C` [Example 39, N^ε29-[(4S)-4-carboxy-4-[[(4S)-4-carboxy-4-[[2-[2-[2-[[(4S)-4-carboxy-4-(17-carboxyheptadecanoylamino)butanoyl]amino]ethoxy]ethoxy]acetyl]amino]butanoyl]amino]butanoyl]-[Aib2,Leu10,Ala16,Arg20,Glu21,Leu27,Lys29]-Glucagon amide] (H-H[Aib]QGTFTSDLSKYLDARRAREFVQWLLNK([γGlu-γGlu-AEEA-γGlu-C18 diacid])-NH2; N-terminus assumed) as the molecule, how does the IC50 read?
Its IC50 is 0.3 nM.

With `CC(C)C[C@H](NC(=O)[C@H](Cc1ccc(O)cc1)NC(=O)[C@H](CCCCN)NC(=O)[C@H](CO)NC(=O)[C@H](CC(C)C)NC(=O)[C@H](CC(=O)O)NC(=O)[C@H](CO)NC(=O)[C@@H](NC(=O)[C@H](Cc1ccccc1)NC(=O)[C@@H](NC(=O)CNC(=O)[C@H](CCC(N)=O)NC(=O)C(C)(C)NC(=O)[C@@H](N)Cc1c[nH]cn1)[C@@H](C)O)[C@@H](C)O)C(=O)N[C@@H](CC(=O)O)C(=O)N[C@@H](C)C(=O)N[C@@H](CCCNC(=N)N)C(=O)N[C@@H](CCCNC(=N)N)C(=O)N[C@@H](C)C(=O)N[C@@H](CCCNC(=N)N)C(=O)N[C@@H](CC(=O)O)C(=O)N[C@@H](Cc1ccccc1)C(=O)N[C@H](C(=O)N[C@@H](CCC(N)=O)C(=O)N[C@@H](Cc1c[nH]c2ccccc12)C(=O)N[C@@H](CC(C)C)C(=O)N[C@@H](CC(C)C)C(=O)N[C@@H](CO)C(=O)N[C@@H](CCCCNC(=O)CC[C@H](NC(=O)CC[C@H](NC(=O)COCCOCCNC(=O)COCCOCCNC(=O)CC[C@H](NC(=O)CCCCCCCCCCCCCCCCC(=O)O)C(=O)O)C(=O)O)C(=O)O)C(N)=O)C(C)C` [Example 66, N^ε29-[(4S)-4-carboxy-4-[[(4S)-4-carboxy-4-[[2-[2-[2-[[2-[2-[2-[[(4S)-4-carboxy-4-(17-carboxyheptadecanoylamino)butanoyl]amino]ethoxy]ethoxy]acetyl]amino]ethoxy]ethoxy]acetyl]amino]butanoyl]amino]butanoyl]-[Aib2,Leu10,Ala16,Arg20,Leu27,Ser28,Lys29]-Glucagon amide] (H-H[Aib]QGTFTSDLSKYLDARRARDFVQWLLSK([γGlu-γGlu-AEEA-AEEA-γGlu-C18 diacid])-NH2; N-terminus assumed) as the molecule, how does the IC50 read?
The IC50 was 0.6 nM.

For `CC(C)C[C@H](NC(=O)[C@H](Cc1c[nH]c2ccccc12)NC(=O)[C@H](CCC(N)=O)NC(=O)[C@@H](NC(=O)[C@H](Cc1ccccc1)NC(=O)[C@H](CCC(=O)O)NC(=O)[C@H](CCCNC(=N)N)NC(=O)[C@H](C)NC(=O)[C@H](CCCNC(=N)N)NC(=O)[C@H](CCCNC(=N)N)NC(=O)C(C)(C)NC(=O)[C@H](CC(=O)O)NC(=O)[C@H](CC(C)C)NC(=O)[C@H](Cc1ccc(O)cc1)NC(=O)[C@H](CCCCN)NC(=O)[C@H](CO)NC(=O)[C@H](CC(C)C)NC(=O)[C@H](CC(=O)O)NC(=O)[C@H](CO)NC(=O)[C@@H](NC(=O)[C@H](Cc1ccccc1)NC(=O)[C@@H](NC(=O)CNC(=O)[C@H](CCC(N)=O)NC(=O)C(C)(C)NC(=O)[C@@H](N)Cc1c[nH]cn1)[C@@H](C)O)[C@@H](C)O)C(C)C)C(=O)N[C@@H](CC(C)C)C(=O)N[C@@H](CCCCNC(=O)CC[C@H](NC(=O)CC[C@H](NC(=O)COCCOCCNC(=O)COCCOCCNC(=O)CC[C@H](NC(=O)CCCCCCCCCCCCCCCCC(=O)O)C(=O)O)C(=O)O)C(=O)O)C(=O)N[C@H](C(N)=O)[C@@H](C)O` [Example 51, N^ε28-[(4S)-4-carboxy-4-[[(4S)-4-carboxy-4-[[2-[2-[2-[[2-[2-[2-[[(4S)-4-carboxy-4-(17-carboxyheptadecanoylamino)butanoyl]amino]ethoxy]ethoxy]acetyl]amino]ethoxy]ethoxy]acetyl]amino]butanoyl]amino]butanoyl]-[Aib2,Leu10,Aib16,Arg20,Glu21,Leu27,Lys28]-Glucagon amide] (H-H[Aib]QGTFTSDLSKYLD[Aib]RRAREFVQWLLK([γGlu-γGlu-AEEA-AEEA-γGlu-C18 diacid])T-NH2; N-terminus assumed), which IC50 is on record?
Its IC50 is 0.7 nM.

With `CC(C)C[C@H](NC(=O)[C@H](Cc1ccc(O)cc1)NC(=O)[C@H](CCCNC(=N)N)NC(=O)[C@H](CO)NC(=O)[C@H](CC(C)C)NC(=O)[C@H](CC(=O)O)NC(=O)[C@H](CO)NC(=O)[C@@H](NC(=O)[C@H](Cc1ccccc1)NC(=O)[C@@H](NC(=O)CNC(=O)[C@H](CCC(N)=O)NC(=O)C1(NC(=O)[C@@H](N)Cc2c[nH]cn2)CCC1)[C@@H](C)O)[C@@H](C)O)C(=O)N[C@@H](CCC(=O)O)C(=O)N[C@@H](CO)C(=O)N[C@@H](CCCNC(=N)N)C(=O)N[C@@H](CCCNC(=N)N)C(=O)N[C@@H](C)C(=O)N[C@@H](CCCNC(=N)N)C(=O)N[C@@H](CCC(=O)O)C(=O)N[C@@H](Cc1ccccc1)C(=O)N[C@H](C(=O)N[C@@H](CCC(N)=O)C(=O)N[C@@H](Cc1c[nH]c2ccccc12)C(=O)N[C@@H](CC(C)C)C(=O)N[C@@H](CC(C)C)C(=O)N[C@@H](CCCCNC(=O)CC[C@H](NC(=O)CC[C@H](NC(=O)COCCOCCNC(=O)COCCOCCNC(=O)CC[C@H](NC(=O)CC[C@H](NC(=O)CCCCCCCCCCCCCCCCC(=O)O)C(=O)O)C(=O)O)C(=O)O)C(=O)O)C(=O)N[C@H](C(N)=O)[C@@H](C)O)C(C)C` [Example 59, N^ε28-[(4S)-4-carboxy-4-[[(4S)-4-carboxy-4-[[2-[2-[2-[[2-[2-[2-[[(4S)-4-carboxy-4-[[(4S)-4-carboxy-4-(17-carboxyheptadecanoylamino)butanoyl]amino]butanoyl]amino]ethoxy]ethoxy]acetyl]amino]ethoxy]ethoxy]acetyl]amino]butanoyl]amino]butanoyl]-[Acb2,Leu10,Arg12,Glu15,Arg20,Glu21,Leu27,Lys28]-Glucagon amide] (H-H[Ac4c]QGTFTSDLSRYLESRRAREFVQWLLK([γGlu-γGlu-AEEA-AEEA-γGlu-γGlu-C18 diacid])T-NH2; N-terminus assumed) as the molecule, how does the IC50 read?
The IC50 was 0.2 nM.
